pIC50: −log10 of the molar value.
What was measured:
[1] = test system: fragments of bovine cartilage; experiment: Alamar blue toxicity test in the bovine cartilage culture; format: cell-based; conditions: 21 days of cultivation, whatever the dose (0.01-10 mM)
Procedure: (§1) The duration of the cultivation period is 21 days (culture medium changed every 2 days). A group not treated with TNFα and oncostatin M constitutes the control group. Five lots of stimulated cartilage fragments were treated with the compound of Example 1, each at a different dose: 0.01; 0.1; 1; 3 and 10 mM. 5 replications were carried out for each dose.
The treatment is moreover well tolerated by the cells for the 21 days of cultivation (toxicity test employed: Alamar blue—negative whatever the dose).

[2] = test system: fragments of bovine cartilage; experiment: In vitro inhibition of bovine cartilage catabolism (cartilage fragments stimulated with TNFα and oncostatin M, 21 days); format: cell-based; conditions: for percentage inhibition of the degradation of the proteins in the cartilage: D21; for percentage inhibition of the degradation of the GAGs: D21, DMB technique
Procedure: The study was carried out on fragments of bovine cartilage in culture medium (96-well plate), the degradation of which is stimulated by adding TNFα and oncostatin M (Schaller, S., Henriksen, K., Hoegh-Andersen, P., Sondergaard, B. C., Sumer, E. U., Tanko, L. B., Qvist, P., Karsdal, M. A. In vitro, ex vivo, and in vivo methodological approaches for studying therapeutic targets of osteoporosis and degenerative joint diseases: how biomarkers can assist? Assay. Drug Dev. Technol. 3, 553-580 (2005).
as §1
On D19, the concentration of CTX II (fragment of type II collagen resulting from the degradation of that collagen by metalloproteases) in the culture medium is measured using an ELISA technique. That parameter is expressed in ng/ml/mg of cartilage.
On D21, the following are measured in the cartilage remaining at the end of cultivation: • the quantity of proteins, using the kit marketed by Biorad. For the groups treated with the compound of Example 1, the results of this parameter are expressed as the percentage inhibition of the degradation of the proteins in the cartilage of the untreated control group; • and the quantity of glycosaminoglycans (GAGs), using the […] (DMB). That parameter, too, is expressed as a percentage inhibition of the degradation of the GAGs evaluated in the control group after culturing for 21 days. Results

`O=S(=O)([O-])CCCS(=O)(=O)[O-].[Sr+2]` [Example 1, Strontium 1,3-propanedisulphonate] was tested, and the “toxicity test Alamar blue (tolerance by the cells)” value [1] was “negative”, the pIC50 ([2]; D19, ELISA, TNFα + oncostatin M stimulated cartilage, significant (p<0.001), dose-dependent, read-out: inhibition of the salting out of CTX II in the culture medium (IC50)) was 2.46 and the “percentage inhibition of the degradation of the proteins in the cartilage” value (shortened to “percentage inhibition … in the cartilage”) ([2]; dose 1 mM) was 22%. The “percentage inhibition of the degradation of the GAGs” value (“percentage inhibition … of the GAGs” below) ([2]; dose 1 mM) was 4%, the “percentage inhibition … in the cartilage” value ([2]; dose 3 mM) was 41% and the “percentage inhibition … of the GAGs” value ([2]; dose 3 mM) was 8%. For the same compound, the “percentage inhibition … of the GAGs” value ([2]; dose 10 mM, **p < 0.01) was 26%** and the “percentage inhibition … in the cartilage” value ([2]; dose 10 mM, *p < 0.05) was 55%*.
